Values belong to the molecule of their own block, whether it stands above or below them. Activity calls are given as the source filed them. No cut-off for these calls is given here.
Assays:
[1] = tested on: Kidney; experiment: Release of H2S in mouse kidney homogenate at 10 to 300 uM measured for 10 mins by methylene blue formation assay; format: ADME, tissue-based; conditions: tissue homogenate, dose 10-300 µM
[2] = tested on: Mus musculus; experiment: Antihistamine effect in mouse assessed as Inhibition of histamine-induced increase vascular leakage in skin tissue at 15 mg/kg, ip pretreated 30 mins before Evans blue injection followed by injected with histamine mouse euthanized and skin excised by Miles assay; format: functional, organism-based
[3] = tested on: Mus musculus; experiment: Antipruritic effect in mouse assessed as reduction in PAR-2-induced itching duration at 15 mg/kg ip pretreated 30 mins before histamine and recorded for 10 mins; format: functional, organism-based
[4] = Toxicity in histamine-induced mouse itching mouse model assessed as reduction in locomotion at 60 to 120 mg/kg ip; format: organism-based; conditions: in vivo, dose 60-120 mg/kg
[5] = Plasma concentration in mouse at 1 mg/kg, ip measured after 30 mins by LC-MS/MS analysis; format: ADME, organism-based
[6] = tested on: Mus musculus; experiment: Antipruritic effect in mouse assessed as reduction in histamine-induced itching duration at 15 mg/kg ip pretreated 30 mins before histamine and recorded for 10 mins; format: functional, organism-based
[7] = (§1) Antihistamine effect in HUVEC cells assessed as inhibition of histamine-induced tissue factor expression pretreated 30 mins before addition of his measured after 2 hrs after addition of TRIzol by spectrophotometry; format: functional, cell-based; conditions: Homo sapiens, HUVE
[8] = tested on: HUVE; experiment: as §1; format: functional, cell-based; conditions: Homo sapiens
[9] = Drug metabolism in mouse assessed as fold increase in plasma HDZ at 50 mg/kg, ip by LC-MS/MS analysis; format: ADME, organism-based; conditions: in vivo
[10] = Toxicity in mouse assessed as sedative effect by measuring reduction in locomotion at 70 mg/kg ip; format: organism-based; conditions: in vivo
[11] = Toxicity in histamine-induced mouse itching mouse model assessed as reduction in locomotion at 15 mg/kg ip; format: organism-based; conditions: in vivo
[12] = tested on: Mus musculus; experiment: Antipruritic effect in mouse assessed as reduction in histamine-induced itching duration at 60 to 120 mg/kg ip pretreated 30 mins before histamine and recorded for 10 mins; format: functional; conditions: dose 60-120 mg/kg, 0.5 h
[13] = tested on: HepG2; experiment: Release of H2S in human HepG2 cells measured for 24 hrs by lead acetate method; format: ADME, cell-based; conditions: hepg2, 24 h, dose 0.5-3 mM
[14] = tested on: Mus musculus; experiment: Antipruritic effect in mouse assessed as reduction in histamine-induced itching duration at 3.5 mg/kg ip pretreated 30 mins before histamine and recorded for 10 mins relative to HDZ; format: functional, organism-based
[15] = tested on: Mus musculus; experiment: Antipruritic effect in mouse assessed as reduction in histamine-induced itching duration at 20 mg/kg ip pretreated 30 mins before histamine and recorded for 10 mins; format: functional, organism-based
[16] = tested on: Mus musculus; experiment: Antipruritic effect in mouse assessed as reduction in histamine-induced itching duration at 50 mg/kg ip pretreated 30 mins before histamine and recorded for 10 mins relative to CET; format: functional, organism-based
[17] = tested on: Mus musculus; experiment: Antipruritic effect in mouse assessed as reduction in PAR-2-induced itching duration at 50 mg/kg ip pretreated 30 mins before histamine and recorded for 10 mins; format: functional, organism-based
[18] = Drug metabolism in mouse assessed as fold increase in plasma CET at 50 mg/kg, ip by LC-MS/MS analysis; format: ADME, organism-based; conditions: in vivo
[19] = tested on: Mus musculus; experiment: Antihistamine effect in mouse assessed as Inhibition of histamine-induced increase vascular leakage in skin tissue at 50 mg/kg, ip pretreated 30 mins before Evans blue injection followed by injected with histamine mouse euthanized and skin excised by Miles assay; format: functional, organism-based
[20] = tested on: Mus musculus; experiment: Antipruritic effect in mouse assessed as reduction in histamine-induced itching duration at 10 mg/kg ip pretreated 30 mins before histamine and recorded for 10 mins; format: functional, organism-based
[21] = tested on: Mus musculus; experiment: Antipruritic effect in mouse assessed as reduction in histamine-induced itching duration at 30 mg/kg ip pretreated 30 mins before histamine and recorded for 10 mins; format: functional, organism-based
[22] = Plasma concentration in mouse at 10 mg/kg, ip measured after 30 mins by LC-MS/MS analysis
[23] = tested on: Mus musculus; experiment: Antipruritic effect in mouse assessed as reduction in PAR-2-induced itching duration at 10 mg/kg ip pretreated 30 mins before histamine and recorded for 10 mins; format: functional, organism-based
[24] = tested on: Mus musculus; experiment: Antihistamine effect in mouse assessed as Inhibition of histamine-induced increase vascular leakage in skin tissue at 10 mg/kg, ip pretreated 30 mins before Evans blue injection followed by injected with histamine mouse euthanized and skin excised by Miles assay; format: functional, organism-based
[25] = tested on: Mus musculus; experiment: Antipruritic effect in mouse assessed as reduction in histamine-induced itching duration at 5 mg/kg ip pretreated 30 mins before histamine and recorded for 10 mins; format: functional, organism-based
[26] = tested on: Mus musculus; experiment: Antipruritic effect in mouse assessed as reduction in PAR-2-induced itching duration at 1 mg/kg ip pretreated 30 mins before histamine and recorded for 10 mins; format: functional, organism-based
[27] = tested on: Mus musculus; experiment: Antihistamine effect in mouse assessed as Inhibition of histamine-induced increase vascular leakage in skin tissue at 1 mg/kg, ip pretreated 30 mins before Evans blue injection followed by injected with histamine mouse euthanized and skin excised by Miles assay; format: functional, organism-based
[28] = Toxicity in mouse assessed as sedative effect by measuring reduction in locomotion at 50 mg/kg ip; format: organism-based; conditions: in vivo
[29] = tested on: Mus musculus; experiment: Antipruritic effect in mouse assessed as reduction in histamine-induced itching duration at 1 mg/kg ip pretreated 30 mins before histamine and recorded for 10 mins; format: functional, organism-based

Drug metabolism [1]: Dose-Dependent Effect
Structure (SMILES): CCOCCn1c(C2CCN(CCc3ccc(C(C)(C)C(=O)Oc4ccc(C(N)=S)cc4)cc3)CC2)nc2ccccc21

concentration at 0.5 h [5]: 36.1 ng/mL | IC50 [7]: 599 nM | Drug metabolism [1]: Dose-Dependent Effect | fold change (FC) [9]: 15
Structure (SMILES): NC(=S)c1ccc(OC(=O)CCC(=O)OCCOCCN2CCN(C(c3ccccc3)c3ccc(Cl)cc3)CC2)cc1 (stereo unspecified)
inhibition [2]: Active | inhibition [3]: Active | Activity [4]: Toxic | inhibition [6]: Active | inhibition [8]: Dose-Dependent Effect | Activity [10]: Non-Toxic | Activity [11]: Non-Toxic | inhibition (INH) [12]: 100%

Structure (SMILES): C[C@H]1CN(C2CCC(C#N)(c3ccc(F)cc3)CC2)CC[C@@]1(C(=O)Oc1ccc(-c2cc(=S)ss2)cc1)c1ccccc1 (stereo partly specified)
Drug metabolism [1]: Dose-Dependent Effect | Drug metabolism [13]: Dose-Dependent Effect

Structure (SMILES): C[C@H]1CN(C2CCC(C#N)(c3ccc(F)cc3)CC2)CC[C@@]1(C(=O)Oc1ccc(C(N)=S)cc1)c1ccccc1 (stereo partly specified)
Drug metabolism [1]: Dose-Dependent Effect

Drug metabolism [1]: Dose-Dependent Effect | Drug metabolism [13]: Dose-Dependent Effect
Structure (SMILES): CCOCCn1c(C2CCN(CCc3ccc(C(C)(C)C(=O)Oc4ccc(-c5cc(=S)ss5)cc4)cc3)CC2)nc2ccccc21

Structure (SMILES): NC(=S)c1ccccc1
inhibition [14]: Active

Structure (SMILES): Oc1ccc(-c2cc(=S)ss2)cc1
inhibition [15]: Active

Drug metabolism [1]: Dose-Dependent Effect
Structure (SMILES): O=C(COCCN1CCN(C(c2ccccc2)c2ccc(Cl)cc2)CC1)OCCCCCCOc1ccc(-c2cc(=S)ss2)cc1 (racemic)

IC50 [7]: 5.5 nM | Drug metabolism [1]: Dose-Dependent Effect | Drug metabolism [13]: Dose-Dependent Effect
Structure (SMILES): O=C(CCC(=O)Oc1ccc(-c2cc(=S)ss2)cc1)OCCOCCN1CCN(C(c2ccccc2)c2ccc(Cl)cc2)CC1 (racemic)
inhibition [8]: Dose-Dependent Effect

IC50 [7]: 7.9 nM | Drug metabolism [1]: Dose-Dependent Effect
Structure (SMILES): NC(=S)c1ccc(OCCCCCCOC(=O)COCCN2CCN(C(c3ccccc3)c3ccc(Cl)cc3)CC2)cc1 (racemic)
inhibition [8]: Dose-Dependent Effect

fold change (FC) [18]: 3 | IC50 [7]: 812 nM | Drug metabolism [1]: Dose-Dependent Effect | Drug metabolism [13]: Dose-Dependent Effect
Structure (SMILES): O=C(COCCN1CCN(C(c2ccccc2)c2ccc(Cl)cc2)CC1)OCCOc1ccc(-c2cc(=S)ss2)cc1 (racemic)
inhibition [16]: Active | inhibition [17]: Active | inhibition [8]: Dose-Dependent Effect | inhibition [19]: Active

concentration at 0.5 h [22]: 8460 ng/mL | IC50 [7]: 169 nM
Structure (SMILES): O=C(O)COCCN1CCN(C(c2ccccc2)c2ccc(Cl)cc2)CC1 (stereo unspecified) [CETIRIZINE]
Activity [20]: Active | Activity [21]: Active | inhibition [8]: Dose-Dependent Effect | Activity [10]: Toxic | inhibition [23]: Active | inhibition [24]: Active

IC50 [7]: 4.87 nM
Structure (SMILES): OCCOCCN1CCN(C(c2ccccc2)c2ccc(Cl)cc2)CC1 (stereo unspecified) [HYDROXYZINE]
Activity [25]: Active | inhibition [26]: Active | inhibition [27]: Active | inhibition [8]: Dose-Dependent Effect | Activity [28]: Toxic | Activity [29]: Active

Reference: ChEMBL document CHEMBL5346951, “Novel H2S-Releasing Bifunctional Antihistamine Molecules with Improved Antipruritic and Reduced Sedative Actions” (J Med Chem, 2023)
